In publication PMC11604048, “Constrained TACC3 peptidomimetics for a non-canonical protein–protein interface elucidate allosteric communication in Aurora-A kinase” (Chemical Science, 2024) one finds Kd and ΔG data, which are given here for 8 compounds.

A word on the Kd: it is the free concentration of one partner at which half of the binding sites on the other are occupied at equilibrium, for simple one-to-one binding.

*1 amine or outer side, *2 acyl side, *3 side chain or, on linkers, in order; H or OH if unused. Where a SMILES comes first, the peptide text is derived from it. Bridges are numbered along the chain shown (N, C = ends). [ ]: non-standard residue; d: D form. The star is where a group is joined. 5FAM = O=C1OC2(c3ccc(O)cc3Oc3cc(O)ccc32)c2ccc(C(=O)*)cc21; Biphenyl(4,4'-CH2)2 = c1cc(-c2ccc(C[*:2])cc2)ccc1C[*:1]; Pro(trans-4-F) = O=C(O)[C@@H]1C[C@@H](F)CN1; Phe(4-Br) = N[C@@H](Cc1ccc(Br)cc1)C(=O)O; Phe(4-I) = N[C@@H](Cc1ccc(I)cc1)C(=O)O; Ahx = NCCCCCC(=O)O

For assay [1], the target named is T1, Aurora-A122-403-C290A/C393A (Homo sapiens, UniProt O14965, C290A/C393A).
T1 construct: Human Aurora-A kinase domain 122-403 wild-type or C290A/ C393A mutant; His tag (pET30TEV vector) (N, cleaved yes); made in house; host or cells: E. coli RIL, co-expressed with lambda phosphatase (Aurora-A); tracer by solid phase synthesis
T1 sequence (O14965 122-403 C290A/C393A): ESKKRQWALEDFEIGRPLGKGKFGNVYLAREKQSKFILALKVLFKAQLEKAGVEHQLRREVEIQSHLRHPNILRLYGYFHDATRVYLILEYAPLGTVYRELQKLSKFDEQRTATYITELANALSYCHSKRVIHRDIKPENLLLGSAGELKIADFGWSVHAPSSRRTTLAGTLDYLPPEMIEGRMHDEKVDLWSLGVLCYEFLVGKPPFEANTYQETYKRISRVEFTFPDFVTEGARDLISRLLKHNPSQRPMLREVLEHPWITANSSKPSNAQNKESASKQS
Briefly: FA direct binding assay (Aurora-A titrated into FAM-Ahx-labelled peptide). Also on record: ΔG: unit not given here. Particulars: for ΔG: Table S6, from direct FA titration, n = 6. Here is the method: Fluorescence anisotropy (FA) assays – General information.
All assays were performed using 384-well plates(Greiner Bio-one, UK). […]
produced as described previously.11 All samples were prepared in 25 mM Tris,150 mM NaCl, 5 mM MgCl2, […]
(PerkinElmer; Waltham, MA, USA).The parameters were set as follows: Excitation wavelength = 480 nm […]
Measured data were processed and analysed as previously described.12 Specifically, the perpendicular intensity (P) and parallel intensity (S) were subtracted by the control values and used for calculations of intensity and anisotropy using the following Equations 1, 2, 3, 4, and 5:
I= (2PG) + S Eq. (SI − 5)
r = (S − PG) Eq. (SI − 6)
L = r − r௠௜௡ Eq. (SI − 7)
y = (k + x + [FL]) − ඥ(k + x + [FL]2 − 4 ∗ x ∗ [FL]) Eq. (SI − 8)
y = r + r௠௜௡ − r௠௔௫ Eq. (SI − 9)
Where I = total intensity; P = perpendicular intensity; S = parallel intensity; G = instrument factor; r = anisotropy; Lb = ligand bound fraction; λ = change in intensity between bound and unbound states which […]
FA direct binding assays. […]
starting from 700 μM, diluted over 24 points in a 1/2 regime using the FAM-Ahx-labeled peptides at a final fixed concentration of 50 nM per well.

The target in assay [2] is T1, Aurora-A122-403-C290A/C393A. Briefly: Isothermal titration calorimetry (ITC). The class given is binding. The settings on record: single titration. As for the experimental part:
Isothermal titration calorimetry (ITC). ITC experiments were carried out using a MicroCal PEAQ-ITC system (Malvern Panalytical) at 25 °C. A stock solution of Aurora-A 122-403-290A/C393A was dialyzed into ITC buffer overnight (25 mM Tris buffer, pH= 7.5; 150 mM NaCl; 5 mM MgCl2; 5 % v/v glycerol), and the same buffer was employed to resuspend a solid portion of the testing peptides. For each experiment, initially, the cell was filled with 275 µl of Aurora-A122-403-290A/C393A (46 μM) and the syringe was loaded with the corresponding peptide at 1.25 mM concentration. An initial injection of 0.5 μL was then followed by 13 injections of 3 μL, every 150 s, with a constant syringe rotation speed of 750 rpm throughout. The signal for the enthalpy of dilution of each peptide into buffer was independently measured in a control titration experiment and then subtracted from the experimental binding traces. The Kd, ΔG°, ΔH° and -TΔS° values were determined via the MicroCal PEAQ-ITC analysis software (Malvern Paranalytical) using a single-site binding model. […]
(In general: ITC needs no label: the signal is the heat of the interaction.)

[3] abbreviates: direct FA titration of Aurora-A122-403-C290A/C393A into 50 nM FAM-Ahx-labelled peptide, 25 mM Tris, 150 mM NaCl, 5 mM MgCl2, pH 7.5, 25 °C, mean ± SD, n = 3, read-out: Kd.
Setting [4] is: Table S6, direct FA titration, 50 nM fluorescein-labelled peptide, Tris buffer pH 7.5, mean ± SD, n = 6, read-out: Kd.
The mark [5] stands for this setting: 50 nM fluorescein-labelled peptide, mean ± SD.

Regarding `CC(C)C[C@H](NC(=O)[C@H](Cc1ccc(O)cc1)NC(=O)[C@H](CC(=O)O)NC(=O)[C@@H](NC(=O)[C@H](CCC(=O)O)NC(=O)[C@H](C)NC(=O)CNC(=O)[C@@H](NC(=O)CNC(=O)[C@H](CC(C)C)NC(=O)[C@@H](NC(=O)[C@H](CCC(=O)O)NC(=O)[C@H](C)NC(=O)[C@@H]1CCCN1C(=O)[C@H](CC(=O)O)NC(=O)[C@H](CCCNC(=N)N)NC(=O)[C@H](Cc1ccccc1)NC(=O)[C@H](CO)NC(=O)[C@H](CCC(=O)O)NC(=O)[C@H](CCC(=O)O)NC(=O)CCCCCNC(=O)c1ccc2c(c1)C(=O)OC21c2ccc(O)cc2Oc2cc(O)ccc21)C(C)C)[C@@H](C)O)C(C)C)C(=O)N[C@@H](CCC(=O)O)C(N)=O` [FAM-Ahx-TACC3 522-542] ({5FAM-Ahx}-EESFRDPAEVLGTGAEVDYLE-NH2), in assay [1] (setting [3]), the Kd was determined as 4500 ± 200 nM.
As for `CC(C)C[C@H](NC(=O)[C@H](Cc1ccc(O)cc1)NC(=O)[C@H](CC(=O)O)NC(=O)[C@@H](NC(=O)[C@H](CCC(=O)O)NC(=O)[C@H](C)NC(=O)CNC(=O)[C@@H](NC(=O)CNC(=O)[C@H](CC(C)C)NC(=O)[C@@H](NC(=O)[C@H](CCC(=O)O)NC(=O)[C@H](C)NC(=O)[C@@H]1CCCN1C(=O)[C@H](CC(=O)O)NC(=O)[C@H](CCCNC(=N)N)NC(=O)[C@H](Cc1ccccc1)NC(=O)[C@H](CO)NC(=O)[C@H](CCC(=O)O)NC(=O)[C@H](CCC(=O)O)NC(=O)CCCCCNC(=O)c1ccc2c(c1)C(=O)OC21c2ccc(O)cc2Oc2cc(O)ccc21)C(C)C)[C@@H](C)O)C(C)C)C(=O)N[C@@H](CCC(=O)O)C(=O)N[C@@H](CCC(N)=O)C(=O)N[C@@H](Cc1ccccc1)C(=O)NCC(=O)N[C@H](C(=O)N[C@@H](CO)C(=O)N[C@@H](CO)C(=O)N[C@@H](Cc1ccccc1)C(=O)N[C@@H](CCCCN)C(=O)N[C@@H](CCC(=O)O)C(=O)N[C@@H](CO)C(N)=O)[C@@H](C)O` [FAM-Ahx-TACC3 522-552] ({5FAM-Ahx}-EESFRDPAEVLGTGAEVDYLEQFGTSSFKES-NH2), the dissociation constant Kd in assay [1] (setting [3]) was 5200 ± 500 nM.
Take `CC(C)C[C@H](NC(=O)[C@@H](NC(=O)[C@H](CCC(=O)O)NC(=O)[C@H](C)NC(=O)[C@@H]1CCCN1C(=O)[C@H](CC(=O)O)NC(=O)[C@H](CCCNC(=N)N)NC(=O)[C@H](Cc1ccccc1)NC(=O)[C@H](CO)NC(=O)[C@H](CCC(=O)O)NC(=O)[C@H](CCC(=O)O)NC(=O)CCCCCNC(=O)c1ccc2c(c1)C(=O)OC21c2ccc(O)cc2Oc2cc(O)ccc21)C(C)C)C(=O)NCC(=O)N[C@H](C(=O)NCC(=O)N[C@@H](C)C(N)=O)[C@@H](C)O` [FAM-Ahx-TACC3 522-536]: in assay [1] (SD), the dissociation constant Kd came out at 10500 ± 1130 nM.
`CC(C)C[C@H](NC(=O)[C@@H](NC(=O)[C@@H]1CSCc2ccc(cc2)-c2ccc(cc2)CSC[C@H](NC(=O)[C@H](CCC(=O)O)NC(=O)[C@H](CCC(=O)O)NC(=O)[C@H](CCCCN)NC(=O)[C@H](CC(C)C)NC(=O)[C@H](CCC(=O)O)NC(=O)[C@H](CC(C)C)NC(=O)CCCCCNC(=O)c2ccc3c(c2)C(=O)OC32c3ccc(O)cc3Oc3cc(O)ccc32)C(=O)N[C@@H](Cc2ccc(Br)cc2)C(=O)N[C@@H](CCCNC(=N)N)C(=O)N[C@@H](CC(=O)O)C(=O)N2C[C@H](F)C[C@H]2C(=O)N[C@@H](C)C(=O)N1)C(C)C)C(N)=O` [FAM-Ahx-TACC3 518-532-S/E-Bph-BrF/fP] ({5FAM-Ahx}-LELKEEC[Phe(4-Br)]RD[Pro(trans-4-F)]ACVL-NH2; linker 7-13 via Biphenyl(4,4'-CH2)2): the Kd in assay [1] (setting [4]) came out at 620 ± 150 nM. In addition, the ΔG in assay [1] (setting [5]) was -35.5 ± 0.6.
For the compound `CC(C)C[C@H](NC(=O)[C@@H](NC(=O)[C@H](CCC(=O)O)NC(=O)[C@H](C)NC(=O)[C@@H]1CCCN1C(=O)[C@H](CC(=O)O)NC(=O)[C@H](CCCNC(=N)N)NC(=O)[C@H](Cc1ccccc1)NC(=O)[C@H](CO)NC(=O)[C@H](CCC(=O)O)NC(=O)[C@H](CCC(=O)O)NC(=O)CCCCCNC(=O)c1ccc2c(c1)C(=O)OC21c2ccc(O)cc2Oc2cc(O)ccc21)C(C)C)C(N)=O` [FAM-Ahx-TACC3 522-532] ({5FAM-Ahx}-EESFRDPAEVL-NH2), the Kd in assay [1] (setting [3]) turned out to be 7100 ± 800 nM.
On to `CC(=O)N[C@@H](CCC(=O)O)C(=O)N[C@@H](CCC(=O)O)C(=O)N[C@@H](CO)C(=O)N[C@@H](Cc1ccccc1)C(=O)N[C@@H](CCCNC(=N)N)C(=O)N[C@@H](CC(=O)O)C(=O)N1CCC[C@H]1C(=O)N[C@@H](C)C(=O)N[C@@H](CCC(=O)O)C(=O)N[C@H](C(=O)N[C@@H](CC(C)C)C(=O)NCC(=O)N[C@H](C(=O)NCC(=O)N[C@@H](C)C(N)=O)[C@@H](C)O)C(C)C` [TACC3 522-536], for which the Kd in assay [2] (ITC 25 °C, Aurora-A 46 µM in cell, Ac-capped peptide 1.25 mM, 25 mM Tris, 150 mM NaCl, 5 mM MgCl2, 5% v/v glycerol, pH 7.5, N restrained fit (N = 1)) is 57.4 µM; in assay [2] (ITC as E13, N unrestrained fit) it was 58.6 µM.
Turning to `CC(C)C[C@H](NC(=O)[C@@H](NC(=O)[C@@H]1CSCc2ccc(cc2)-c2ccc(cc2)CSC[C@H](NC(=O)[C@H](CCC(=O)O)NC(=O)[C@H](CCC(=O)O)NC(=O)[C@H](CCCCN)NC(=O)[C@H](CC(C)C)NC(=O)[C@H](CCC(=O)O)NC(=O)[C@H](CC(C)C)NC(=O)CCCCCNC(=O)c2ccc3c(c2)C(=O)OC32c3ccc(O)cc3Oc3cc(O)ccc32)C(=O)N[C@@H](Cc2ccc(I)cc2)C(=O)N[C@@H](CCCNC(=N)N)C(=O)N[C@@H](CC(=O)O)C(=O)N2C[C@H](F)C[C@H]2C(=O)N[C@@H](C)C(=O)N1)C(C)C)C(N)=O` [FAM-Ahx-TACC3 518-532-S/E-Bph-IF/fP] ({5FAM-Ahx}-LELKEEC[Phe(4-I)]RD[Pro(trans-4-F)]ACVL-NH2; linker 7-13 via Biphenyl(4,4'-CH2)2), the Kd in assay [1] (setting [4]) came out at 900 ± 200 nM; in assay [1] (setting [3]), 800 ± 200 nM. For the same compound, the ΔG in assay [1] (setting [5]) is reported as -34.6 ± 0.6.
For the compound `CC(C)C[C@H](NC(=O)[C@@H](NC(=O)[C@H](CCC(=O)O)NC(=O)[C@H](C)NC(=O)[C@@H]1C[C@@H](F)CN1C(=O)[C@H](CC(=O)O)NC(=O)[C@@H]1CSCc2ccc(cc2)-c2ccc(cc2)CSC[C@H](NC(=O)[C@H](CCC(=O)O)NC(=O)[C@H](CC(C)C)NC(=O)CCCCCNC(=O)c2ccc3c(c2)C(=O)OC32c3ccc(O)cc3Oc3cc(O)ccc32)C(=O)N[C@@H](CCCCN)C(=O)N[C@@H](CCC(=O)O)C(=O)N[C@@H](CCC(=O)O)C(=O)N[C@@H](CO)C(=O)N[C@@H](Cc2ccc(Br)cc2)C(=O)N1)C(C)C)C(N)=O` [FAM-Ahx-TACC3 518-532-L/R-Bph-BrF/fP] ({5FAM-Ahx}-LECKEES[Phe(4-Br)]CD[Pro(trans-4-F)]AEVL-NH2; linker 3-9 via Biphenyl(4,4'-CH2)2), the Kd in assay [1] (setting [4]) is 1480 ± 160 nM. In addition, in assay [1] (setting [5]), the ΔG is recorded as -33.3 ± 0.3.
